pIC50: −log10 of the molar value.
Tests used:
[1] = system: HXB2; assay: Phenoscreen viral entry inhibition assay, HXB2; format: cell-based, HIV; details: Human immunodeficiency virus 1, HXB2, read-out: Viral Entry Inhibition HXB2
Method: (§1) A selected set of compounds were tested for their ability to inhibit the cellular entry of T-tropic HIV. The assay for this inhibition has been carried out on a contractural basis at Monogram Biosciences, Inc. using their well established Phenoscreen™ assay. Briefly, HIV strains of interest are tagged with a luciferase indicator gene to create an appropriate test vector. The test vector is amplified through transfection and the resulting virus is incubated in the presence of target host cells where intracellular florescence activity then becomes a measure of infection. Amplified virus is exposed to target host cells in the presence of a range of test drug concentrations to determine IC50 measurements of entry inhibition. A modification of this test has been further reapplied as a novel drug assay that has been used in partnership with a number of pharmaceutical companies to test the effectiveness of novel entry inhibitors that target specific chemokines. It can used to detect activity against T-tropic, M-tropic, and dual-tropic viruses and Monogram Biosciences has a large bank of over 10,000 different virus strains to ultimately asses the range of applicability of our CXCR4 antagonists. Certain compounds have been tested to establish efficacy in a number of viral strains.

[2] = system: NL4-3; assay: Phenoscreen viral entry inhibition assay, NL4-3; format: cell-based, HIV; details: Human immunodeficiency virus 1, NL43, read-out: Viral Entry Inhibition NL4-3
Method: as §1

[3] = system: Vrs-1; assay: Phenoscreen viral entry inhibition assay, Vrs-1; format: cell-based, HIV; details: Human immunodeficiency virus 1, read-out: Viral Entry Inhibition Vrs-1
Method: as §1

[4] = system: Vrs-2; assay: Phenoscreen viral entry inhibition assay, Vrs-2; format: cell-based, HIV; details: Human immunodeficiency virus 1, read-out: Viral Entry Inhibition Vrs-2
Method: as §1

[5] = system: Vrs-3; assay: Phenoscreen viral entry inhibition assay, Vrs-3; format: cell-based, HIV; details: Human immunodeficiency virus 1, read-out: Viral Entry Inhibition Vrs-3
Method: as §1

[6] = system: Dual; assay: Phenoscreen viral entry inhibition assay, Dual; format: cell-based, HIV; details: Human immunodeficiency virus 1, read-out: Viral Entry Inhibition Dual
Method: as §1

[7] = system: SHIV; assay: Phenoscreen viral entry inhibition assay, SHIV; format: cell-based
Method: as §1

[8] = target: T1, CXCR4 (Homo sapiens, UniProt P61073); assay: SDF-1 stimulated phosphorylation of Akt in MDA-MB-231 cells; format: cell-based; details: 100 ng/ml SDF-1, 30 minutes; FIG. 2
T1 sequence (P61073 whole entry): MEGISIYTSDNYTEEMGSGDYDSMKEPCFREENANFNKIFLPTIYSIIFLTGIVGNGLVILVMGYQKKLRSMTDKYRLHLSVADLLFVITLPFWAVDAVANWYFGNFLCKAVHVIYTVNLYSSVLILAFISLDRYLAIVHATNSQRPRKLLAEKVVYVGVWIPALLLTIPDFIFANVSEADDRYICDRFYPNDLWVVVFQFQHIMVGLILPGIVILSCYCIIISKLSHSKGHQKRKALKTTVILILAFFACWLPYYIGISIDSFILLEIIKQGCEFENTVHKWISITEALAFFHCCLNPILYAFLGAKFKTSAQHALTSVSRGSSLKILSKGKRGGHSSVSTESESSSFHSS
Method: FIG. 2 is an image of a western blot showing phosphorylation of Akt. Incubating MDA-MB-231 cells with 100 ng/ml of SDF-1 for 30 min stimulated phosphorylation of Akt. This activation was blocked with TN14003 or AMD3100 in a dose-dependent manner.
CXCR4/SDF-1 interaction activates PI3K/Akt and Ras/Raf/MEK/Erk pathways in a Gas protein (PTX-sensitive)-dependent manner. Experiments were conducted to determine the effect of blocking CXCR4/SDF-1 interaction by either TN14003 or AMD3100 at different concentrations (0, 0.01, 0.1, 1, 10, 100, 1000 nM) on phosphorylations of Akt and Erk1/2 signaling. Incubating cells with 100 ng/ml of SDF-1 for 30 minutes activated Akt. […] However, the increase in Erk1/2 phosphorylation by SDF-1 was not significant as the increase in Akt phosphorylation.

[9] = target: T1, CXCR4; assay: SDF-1 stimulated Erk1/2 phosphorylation; format: cell-based; details: SDF-1 stimulation; data not shown
Description: CXCR4/SDF-1 interaction activates PI3K/Akt and Ras/Raf/MEK/Erk pathways in a Gas protein (PTX-sensitive)-dependent manner.

[10] = target: T1, CXCR4; assay: CXCR4 protein levels after treating cells; format: cell-based

Row | SMILES | pIC50 [1] | pIC50 [2] | pIC50 [3] | pIC50 [4] | pIC50 [5] | pIC50 [6] | pIC50 [7] | concentration blocking Akt activation [8] | concentration attenuating Erk1/2 phosphorylation [9] [nM] | effect on CXCR4 protein levels [10]
1 | C1=CC(CN2CCCNCCNCCCNCC2)CC=C1CN1CCCNCCNCCCNCC1 (stereo not shown) [AMD3100, reference compound] | 7.89 | 8.10 | 7.89 | 7.82 | 7.37 | 7.52 | 7.89 | a few nano molar | 100 | did not affect CXCR4 protein levels
2 | c1cnc(NCc2ccc(CNc3ncccn3)cc2)nc1 [WZ-40-MS] | < 4.82 | < 4.82 | < 4.82 | ~5.00 | < 4.82 | < 4.82 | ~4.92 |  |  | 
3 | OCc1ccc(CNc2ncccn2)cc1 [WZ-41] | < 4.82 | < 4.82 | < 4.82 | ~4.89 | < 4.82 | < 4.82 | ~4.82 |  |  | 
4 | c1ccc(NCc2cccc(CNc3ccccn3)c2)nc1 [WZ-48-S] | < 4.82 | < 4.82 | < 4.82 | ~4.96 | < 4.82 | < 4.82 | ~4.96 |  |  | 
5 | Fc1ccccc1NCc1ccc(CNc2ccccc2F)cc1 [WZ-51] | < 4.82 | ~4.92 | ~5.00 | ~5.00 | ~5.00 | ~4.92 | 5.85 |  |  | 
6 | c1ccc(NCc2ccc(CNc3ncccn3)cc2)cc1 [WZ-67] | < 4.82 | ~4.96 | < 4.82 | ~4.96 | ~4.92 | < 4.82 | ~5.00 |  |  | 
7 | COc1ccnc(NCc2ccc(CNc3nccc(OC)n3)cc2)n1 [WZ-72-S] | < 4.82 | ~4.82 | < 4.82 | ~4.92 | < 4.82 | < 4.82 | 5.35 |  |  | 
8 | COc1cccc(NCc2ccc(CNc3cccc(OC)c3)cc2)c1 [WZ-77] | < 4.82 | ~4.85 | < 4.82 | ~4.96 | < 4.82 | < 4.82 | 5.05 |  |  | 
9 | c1ccc(NCc2cccc(CNc3ccccc3)c2)cc1 [WZ-814-S] | ~4.82 | ~4.96 | ~4.96 | ~4.96 | ~4.96 | < 4.82 | < 4.82 |  |  | 
10 | c1ccc(CNCc2ccc(CNCc3ccccc3)cc2)cc1 [WZ-8224] | 5.09 | 5.20 | 5.32 | 5.37 | 5.24 | 5.20 | 5.77 |  |  | 
11 | CC(Nc1ccccc1)c1ccc(C(C)Nc2ccccc2)cc1 (stereo not shown) [WZ-8225] | ~4.96 | ~5.00 | ~4.96 | ~5.00 | ~5.00 | < 4.82 | ~5.00 |  |  | 
12 | Cc1cc(CNc2ccccc2)c(C)cc1CNc1ccccc1 [WZ-9103] | ~4.89 | ~4.96 | < 4.82 | ~4.82 | ~4.82 | < 4.82 | 5.02 |  |  | 
13 | c1ccc(NCc2ccc(CNc3ccccc3)cc2)cc1 [WZ-81810] | < 4.82 | < 4.82 | < 4.82 | ~5.00 | < 4.82 | < 4.82 | ~4.92 |  |  | 

Reference: patent US8008312B2, “CXCR4 antagonists for the treatment of HIV infection” (Emory University, priority 2005, dated 2011)
